Data taken from patent US11319300B2, “Polyfluoro-substituted aromatic heterocyclic derivative, pharmaceutical composition containing same, and applications thereof” (ZHEJIANG UNIVERSITY, priority 2017, dated 2022).
Marks after values point to notes of the source that are not given here.

Columns and labels:
[1] = tested on: HGC27; test: Tumour cell proliferation inhibition, MTT assay, HGC27; type: cell-based, human
[2] = tested on: 786-O; test: Tumour cell proliferation inhibition, MTT assay, 786-O; type: cell-based, human
[3] = tested on: MCF-7; test: Tumour cell proliferation inhibition, MTT assay, MCF-7; type: cell-based, human
[4] = tested on: CEM-C1; test: Tumour cell proliferation inhibition, MTT assay, CEM-C1; type: cell-based, human
[5] = biological target: T1, hERG potassium channel (Homo sapiens, UniProt Q12809); test: hERG potassium channel inhibition, manual whole-cell patch clamp in CHO hERG cells; type: cell-based; settings: 3 μM, CHO hERG cells, patch clamp
T1 construct: host or cells: CHO
T1 sequence (Q12809 whole entry): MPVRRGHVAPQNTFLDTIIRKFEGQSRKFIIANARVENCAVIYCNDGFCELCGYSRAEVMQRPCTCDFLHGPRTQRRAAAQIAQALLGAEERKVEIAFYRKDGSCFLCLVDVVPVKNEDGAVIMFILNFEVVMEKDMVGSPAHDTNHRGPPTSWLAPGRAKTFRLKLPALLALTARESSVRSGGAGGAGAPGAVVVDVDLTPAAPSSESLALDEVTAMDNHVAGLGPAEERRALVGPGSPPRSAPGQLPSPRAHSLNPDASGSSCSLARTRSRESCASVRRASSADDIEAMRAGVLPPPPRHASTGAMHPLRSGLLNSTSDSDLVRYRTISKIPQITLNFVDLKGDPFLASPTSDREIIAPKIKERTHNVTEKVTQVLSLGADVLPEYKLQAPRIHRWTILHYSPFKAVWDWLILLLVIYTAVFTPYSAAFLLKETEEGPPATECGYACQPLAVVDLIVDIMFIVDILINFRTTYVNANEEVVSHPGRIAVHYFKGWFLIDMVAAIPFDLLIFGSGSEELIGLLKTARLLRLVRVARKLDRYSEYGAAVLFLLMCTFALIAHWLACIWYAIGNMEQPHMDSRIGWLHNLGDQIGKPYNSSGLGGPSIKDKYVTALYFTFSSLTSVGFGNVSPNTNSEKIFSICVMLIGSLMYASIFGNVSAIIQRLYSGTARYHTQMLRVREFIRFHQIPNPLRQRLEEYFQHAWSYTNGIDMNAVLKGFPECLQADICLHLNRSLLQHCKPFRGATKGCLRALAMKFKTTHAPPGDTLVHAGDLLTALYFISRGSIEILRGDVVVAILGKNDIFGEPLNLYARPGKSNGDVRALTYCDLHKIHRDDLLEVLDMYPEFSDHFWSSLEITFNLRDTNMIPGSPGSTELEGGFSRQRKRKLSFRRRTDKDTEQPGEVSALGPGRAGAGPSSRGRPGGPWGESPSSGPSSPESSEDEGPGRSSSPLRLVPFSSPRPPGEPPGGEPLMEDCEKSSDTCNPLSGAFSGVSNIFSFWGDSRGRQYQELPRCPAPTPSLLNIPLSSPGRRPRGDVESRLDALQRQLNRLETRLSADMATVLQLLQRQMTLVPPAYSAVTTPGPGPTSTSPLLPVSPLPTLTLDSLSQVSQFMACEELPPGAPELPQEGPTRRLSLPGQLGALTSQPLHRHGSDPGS
Method: A Sixty-Third Embodiment: hERG Potassium Channel Inhibition Activity Experiment
The cells used in this assay were CHO cell lines transfected with hERG cDNA and stably expressing the hERG channel (supplied by Sophion Bioscience, Denmark). The cells were cultured in medium containing the following components (all from Invitrogen): Ham's F12 medium, 10% (v/v) inactivated fetal bovine serum, 100 μg/ml hygromycin B, and 100 μg/ml Geneticin. 2.1.2CHO hERG cells were grown in a Petri dish containing the above culture solution, and cultured in an incubator containing 5% of CO2 at 37° C. 24 to 48 hours prior to electrophysiological experiments, CHO hERG cells were transferred to circular glass slides placed in petri dishes and grown under the same culture and culture conditions as above. The density of CHO hERG cells on each circular slide requires that most cells achieve independent, individual requirements.
2. Compound Treatment and Dilution
To obtain the IC50 of the compound, we selecte the following concentrations (30, 10, 3, 1, 0.3, and 0.1 μM) for testing. Prior to testing, the […] were first diluted to 10, 3, 1, 0.3, and 0.1 mM stock solution in gradual dilution with DMSO and then diluted to the final μM test concentration with extracellular fluid. The final concentration of DMSO in each of the other compound solutions was 0.1% except that the DMSO concentration in the 30 μM compound test solution was 0.3%. The positive control Cisapride (cishabili) was tested at a concentration of 0.1 μM. All compound solutions were sonicated and shaken for 5 to 10 minutes to ensure complete dissolution of the compound.
3. Electrophysiological Recording System and Data Analysis
This experiment uses a manual patch clamp system (HEKA EPC-10 signal amplifier and digital conversion system, purchased from HEKA Electronics, Germany) for the recording of whole cell currents. Round slide with CHO hERG cells on the surface was placed in an electrophysiology recording cell under an inverted microscope. The extracellular fluid was continuously perfused in the recording tank (about 1 ml per minute). The experimental procedure uses conventional whole-cell patch clamp current recording techniques. Unless otherwise stated, the experiments were carried out at regular room temperature (˜25° C.). The cells were clamped at a voltage of −80 mV. The cell clamp voltage was depolarized to +20 mV to activate the hERG potassium channel, and after 5 seconds it was clamped to −50 mV to eliminate inactivation and generate tail current. The tail current peak was used as the value of the hERG current magnitude. After the hERG potassium current recorded in the above step was stabilized under the continuous extracellular fluid perfusion in the recording tank, the drug to be tested can be superimposed and filled until the inhibitory effect of the drug on the hERG current reaches a steady state. Generally, the recent three consecutive current recording lines were recombined as a criterion for judging whether or not the state is stable. After reaching a steady state, extracellular fluid perfusion rinse until hERG current returns to the size before adding drug. One cell can test one or more drugs, or multiple concentrations of the same drug, but need to be flushed with extracellular fluid between different drugs. Cisapride (cisapride, purchased from Sigma) was used in the experiment as a positive control to ensure that the cells used were of normal quality. The test data was analysed by HEKA Patchmaster, Microsoft Excel and data analysis software provided by Graphpad Prism.

[6] = tested on: HCT-116; test: Tumour cell proliferation inhibition, MTT assay, HCT-116; type: cell-based, human
Method: (§1) Compound AZD5363 (NCT02208375, NCT02208375, NCT01625286), which have entered the clinical phase II study, was used as a positive control, and the compound was assayed against common tumour cell lines (human ovarian cancer cell line OVCAR-8 and human colon cancer cell line HCT-116) by MTT assay, at the same time, the akt1 enzyme inhibitory activity (IC50) was evaluated using a commercial Akt1 kit.
1) The pharmacological test method for the tumour cell proliferation inhibiting activity of the compound of the present invention was as follows:
The first was the determination of in vitro tumour growth inhibitory activity and the preliminary structure-activity relationship study, and different solid tumour cell lines were used to determine the in vitro antitumour activity of the synthesized compounds.
Experimental materials: cell lines: human ovarian cancer cells (OVCAR8), colon adenocarcinoma cells (HCT-116),
Medium: OVCAR8: RPMI 1640+fetal calf serum
Drug preparation method: dissolving the drug in DMSO to make a 50 mM of stock solution, and diluting it to a certain ratio to obtain 5 different concentrations.
Tumour Cells being Cultured In Vitro:
The selected tumour cells were incubated in a, 5% of CO2 cell incubator at 37° C., and passaged until the cell density was 70 to 90% (the adherent cells were passaged with Duck's EDTA) and used for subsequent experiments.
The compound was dissolved in dimethyl sulfoxide (DMSO), diluted, and tumour cells were seeded into 4000 cells/200 μL/well in 96-well plates, and 1 μL of compound was added to each well to a final concentration of 50 μM, 10 μM, 2 μM, and 0.4 μM. 0.08 μM were incubated in a, 5% of CO2 cell incubator at 37° C. for 72 hours with DMSO (1%) as a blank control.
The calculation formula of the cell inhibition rate is: cell inhibition rate %=(control group OD value−drug group OD value)/control cell OD value×100%, and the half inhibition concentration (IC50) was determined by the Bliss method.

[7] = biological target: T2, AKT1/PKBα (Homo sapiens, UniProt P31749); test: Akt1 enzyme inhibitory activity, AKT1/PKBα KinEASE FP Fluorescein Green Assay; type: biochemical; settings: fluorescence polarization kit assay; read-out: Akt1 IC50 (grade)
T2 construct: purchased
T2 sequence (P31749 whole entry): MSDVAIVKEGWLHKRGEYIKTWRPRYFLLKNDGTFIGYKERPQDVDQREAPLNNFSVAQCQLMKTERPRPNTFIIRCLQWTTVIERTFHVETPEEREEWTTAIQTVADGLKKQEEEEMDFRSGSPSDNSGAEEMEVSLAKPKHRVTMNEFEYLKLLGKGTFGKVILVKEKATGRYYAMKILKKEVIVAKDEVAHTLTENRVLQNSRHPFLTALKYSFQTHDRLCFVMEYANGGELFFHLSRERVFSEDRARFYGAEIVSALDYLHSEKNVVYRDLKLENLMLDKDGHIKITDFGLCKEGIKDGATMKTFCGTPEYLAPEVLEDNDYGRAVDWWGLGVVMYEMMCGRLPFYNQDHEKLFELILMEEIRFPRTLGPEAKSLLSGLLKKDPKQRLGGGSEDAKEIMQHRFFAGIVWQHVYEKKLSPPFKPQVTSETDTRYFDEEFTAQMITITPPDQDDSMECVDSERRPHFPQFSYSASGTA
Method: as §1
2) Test method for the inhibitory activity of the compound of the present invention against Akt1 enzyme:
The AKT1/PKBα KinEASE™ FP Fluorescein Green Assay (Kinase Green Fluorescence Detection System) was used to detect the inhibitory activity of the compound on AKT1/PKBα.
Fluorescence polarization detection protein kinase B employs the principle of a competitive reaction: a fluorescently labeled phosphorylated tracer and an unlabeled phosphorylated product produced by the reaction of protein kinase B will compete with the anti-serine antibody for binding. In a reaction mixture […], when a part of the fluorescent tracer binds to the antibody, it causes a higher polarization value. However, in the reaction solution mixture containing the phosphorylated product, less tracer binds to the antibody (the fluorescent tracer was replaced from the antibody) and the emitted signal was depolarized. Therefore, the change in polarization was directly related to the activity of protein kinase B in the reaction.
The compound of the present invention and the positive control AZD5363 were dissolved in dimethyl sulfoxide (DMSO) and diluted to a concentration of 50 μM. At room temperature, 0.25 μl of the compound sample and the positive control at a concentration of 50 μM were taken and added to the 384-well plate, and three parallel wells were set for each sample, and then 10 μl of STK Substrate 3, Working Solution, 5 μl AKT1/PKBα Working Solution, 10 μl ATP Working Solution were added to each sample well plate with vibrating gently and shaking for a few minutes. The reaction starts after 10 μl of ATP Working Solution was added to the well, and the reaction was timed at room temperature for 1 hour. After one hour, 5 μl of STK Stop Mix and 5 μl of STK Antibody Mix were added to each well respectively to stop the reaction. After the addition completes, it was allowed to stand at room temperature for four hours, and the polarization value of the sample was detected by the fluorescence polarization of the microplate reader (it was effective to detect its signal within 24 hours), and the inhibition rate of the compound was calculated by the polarization value, and then IC50 was calculated.
Four sets of controls were set in the experiment, namely Buffer Control Wells, Tracer Control Wells, No Enzyme Wells, and a blank dimethyl sulfoxide control. The resulting data was used to calculate the inhibition rate.
The activity of the compound was divided into three grades according to the size of the IC50 of the Akt inhibitory activity: “+++”, 1 nM<IC50<10 nM; “++”, 10 nM<IC50<50 nM; “+”, 50 nM<IC50.

[8] = tested on: human gastric cancer HGC27 nude mice xenografts; test: In vivo antitumour activity, human gastric cancer HGC27 nude mice xenografts; settings: HGC27 xenograft, 50 mg/kg intragastric once a day
Method: A Sixty-Fifth Embodiment: In Vivo Antitumour Activity of Compounds
1) Establishment of a nude mouse xenograft model: 1×10^7 test tumour cells were injected into the armpit of nude mice, after three generations, HGC27 mouse tumour blocks were dissected and placed in a glass dish containing physiological saline, after the necrotic area was removed by incision, the tumour mass was cut into 1-2 mm^3 and inserted into the left axilla of the nude mouse with a trocar.
2) Animal grouping and drug delivery arrangements: after the tumour grows to an average volume of 100-300 mm^3, 20 mice were randomly grouped according to the tumour volume, and the above test animals were given the corresponding test substances by intragastric administration at a dose of 10 mL/kg with once a day.
3) Data measurement and statistics: The tumour volume was weighed and measured twice and dosing period was 21 days. On the 22nd day, after the body weight was weighed and the tumour volume was measured, the nude mice were sacrificed and the tumours were weighed to calculate the relative tumour volume (RTV), relative tumour growth rate (T/C) and tumour inhibition percentage (IR) for statistical testing. The calculation formula was as follows: (a) TV (tumour volume)=½×a×b^2, wherein a and b represent the length and width of the tumour respectively, (b) RTV (relative tumour volume)=Vt/V0, Where V0 is the tumour volume measured at the time of group administration (i.e. d0), Vt is the tumour volume at each measurement, (c) T/C (%)=TRTV/CRTV×100%, wherein TRTV is the RTV of treatment group, CRTV is the RTV of the solvent control group, (d) IR (%)=(1−TWt/TWc)×100%, wherein TWt is the tumour weight of the treatment group, and TWc is the tumour weight of the solvent control group.

Cn1nccc1-c1ccc(C(=O)N[C@@H]2CNCC[C@H]2c2cc(F)c(F)c(F)c2)c(F)c1 [VII-8]
IC50 ([1]; Homo sapiens, HGC-27, 72 h): 0.02 µM
IC50 ([2]; Homo sapiens, 786-0, 72 h): 1.65 µM
IC50 ([3]; Homo sapiens, MCF7, 72 h): 1.85 µM
IC50 ([4]; Homo sapiens, CEM/C1, 72 h): 0.12 µM
hERG (Inhibition rate at 3 μM concentration) [5]: 11.8%
IC50 ([6]; Homo sapiens, HCT-116, 72 h): 1.52 µM
IC50 [7]: 0.001 to 0.01 µM

Cn1ncc(Cl)c1-c1cc(C(=O)N[C@H]2CNCC[C@@H]2c2ccc(F)c(F)c2)oc1Cl (racemic) [reference compound]
hERG (Inhibition rate at 3 μM concentration) [5]: 62%

Cn1nccc1-c1ccc(C(=O)N[C@@H]2CNCC[C@H]2c2ccc(F)c(F)c2)c(F)c1.O=C(O)C[C@H](O)C(=O)O [VII-30, L-malate]
IC50 ([1]; 72 hours, L-malate): 0.03 µM
IC50 ([2]; Homo sapiens, 786-0, 72 h): 0.55 µM
IC50 ([3]; 72 hours, L-malate): 1.58 µM
IC50 ([4]; Homo sapiens, CEM/C1, 72 h): 0.08 µM
IC50 ([6]; 72 hours, L-malate): 1.99 µM
IC50 [7]: 0.001 to 0.01 µM

Cn1nccc1-c1ccc(C(=O)N[C@@H]2CNCC[C@H]2c2ccc(F)c(F)c2)cc1 [drawing 115, reference compound]
RTV [8]: 22.60 ± 12.41
T/C(%) [8]: 53.75%
Tumour volume D1 ([8]; D1 (start)): 216 ± 98 mm^3
Tumour volume D22 ([8]; D22): 1650 ± 720* mm^3

Cn1nccc1-c1ccc(C(=O)N[C@@H]2CNCC[C@H]2c2ccc(F)c(F)c2)c(F)c1.O=C(O)C(O)C(O)C(=O)O [VII-33, L-tartrate]
IC50 ([1]; 72 hours, L-tartrate): 0.04 µM
IC50 ([2]; 72 hours, L-tartrate): 0.82 µM
IC50 ([3]; 72 hours, L-tartrate): 2.25 µM
IC50 ([4]; 72 hours, L-tartrate): 0.09 µM
IC50 ([6]; 72 hours, L-tartrate): 3.1 µM
IC50 [7]: 0.001 to 0.01 µM
